The source of these data is patent US9637479B2, “Tartrate salt of 5-chloro-thiophene-2-carboxylic acid [(S)-2-[2-methyl-3-(2-oxo-pyrrolidin-1-yl)-benzenesulfonylamino]-3-(4-methyl-piperazin-1-yl)-3-oxo-propyl]amide” (SANOFI, priority 2013, dated 2017).

What all share (assay type): physicochemical
Data set [1] can be described thus: Physical properties: hygroscopicity, water uptake, behavior under saturated humidity. Particulars: for Behavior under saturated humidity 80° C.: sodium and L-lactate: after 24 hours.
Data set [2] in a line: Test of stability in the solid state (stress degradation, one week of storage). The note with it: for Stress degradation conditions 80°/saturated humidity: one week of storage at 80° C. under saturated humidity; for Stress degradation conditions 80° C./dry: one week of storage at 80° C., stable = optically, chemically and physically. How it is done:
The sodium, L-lactate and L-tartrate salts of the compound of formula (I) were analyzed after one week of storage, at: • 80° C. • 80° C. and under saturated humidity, […]

A short description of data set [3]: Test of solubility in different buffers. The protocol: The solubility of sodium, L-lactate and L-tartrate salts of the compound of formula (I) was analyzed in different buffers. The results are described in table below (solubility of the tested compound is expressed in mg/ml).
A short description of data set [4]: Test of stability in solution (strong oxidizing solution, H2O2 at 0.3%); proportion of main N-oxide impurity. The note with it: room temperature. The protocol: The sodium, L-lactate and L-tartrate salts of the compound of formula (I) were analyzed after one week of storage in a strong oxidizing solution: the three compounds were maintained in a solution of H2O2 at 0.3%, at room temperature. After either 6 hours or one week, the proportion of the main N-oxide impurity of the compound of formula (I) [drawing 4] was measured.

Setting [5] is: 0.2M pH = 9 hydregenocarbonate buffer.

Counter-ions that a name gives are not always drawn. Like-named read-outs stand apart in the source and are kept apart here.

The Solubility is the concentration that dissolves in the medium under given conditions. In the case of `Cc1c(N2CCCC2=O)cccc1S(=O)(=O)N[C@@H](CNC(=O)c1ccc(Cl)s1)C(=O)N1CCN(C)CC1` [L-lactate salt, 5-chloro-thiophene-2-carboxylic acid [(S)-2-[2-methyl-3-(2-oxo-pyrrolidin-1-yl)-benzenesulfonylamino]-3-(4-methyl-piperazin-1-yl)-3-oxo-propyl]amide], in data set [1], the Hygroscopicity result was “Hygroscopic”. For the same compound, in data set [1], the “Water uptake 80% RH 25° C.” value was 2.5%. The “Behavior under saturated humidity 80° C.” value in data set [1] is “Gel formation-amorphous”. Also, the “Stress degradation conditions 80°/saturated humidity” value in data set [2] is “slight degradation”. Moreover, the “Stress degradation conditions 80° C./dry” value in data set [2] is listed as “stable*”. The Solubility in data set [3] (0.1M pH = 4 phosphate buffer) was more than 10000 µg/mL; in data set [3] (0.1M pH = 6.5 phosphate buffer), more than 10000 µg/mL; in data set [3] (0.1M pH = 7.4 phosphate buffer), 9800 µg/mL; in data set [3] (0.1N HCl), more than 10000 µg/mL; in data set [3] (setting [5]) it was 8500 µg/mL; in data set [3] (Purified water) it was more than 10000 µg/mL. Also, the “% of impurity (main N-oxide impurity)” value in data set [4] (after 1 week) is given as 6.9% after 1 week.
On to `Cc1c(N2CCCC2=O)cccc1S(=O)(=O)N[C@@H](CNC(=O)c1ccc(Cl)s1)C(=O)N1CCN(C)CC1` [L-tartrate salt, 5-chloro-thiophene-2-carboxylic acid [(S)-2-[2-methyl-3-(2-oxo-pyrrolidin-1-yl)-benzenesulfonylamino]-3-(4-methyl-piperazin-1-yl)-3-oxo-propyl]amide], for which the Hygroscopicity entry in data set [1] is “Slightly”. Further, in data set [1], the “Water uptake 80% RH 25° C.” value was 0.9%. The “Behavior under saturated humidity 80° C.” value in data set [1] is “Stable 7 days”. In data set [2], the “Stress degradation conditions 80°/saturated humidity” value is given as “stable”. Further, the “Stress degradation conditions 80° C./dry” value in data set [2] was “stable*”. Moreover, the Solubility in data set [3] (0.1M pH = 4 phosphate buffer) is more than 10000 µg/mL; in data set [3] (0.1M pH = 6.5 phosphate buffer) it was more than 10000 µg/mL; in data set [3] (0.1M pH = 7.4 phosphate buffer), more than 10000 µg/mL; in data set [3] (0.1N HCl), more than 10000 µg/mL; in data set [3] (setting [5]) it was 8300 µg/mL; in data set [3] (Purified water) it was more than 10000 µg/mL. In addition, the “% of impurity (main N-oxide impurity)” value in data set [4] (after 1 week) was 0.77% after 1 week.
Take `Cc1c(N2CCCC2=O)cccc1S(=O)(=O)N[C@@H](CNC(=O)c1ccc(Cl)s1)C(=O)N1CCN(C)CC1` [Sodium salt, 5-chloro-thiophene-2-carboxylic acid [(S)-2-[2-methyl-3-(2-oxo-pyrrolidin-1-yl)-benzenesulfonylamino]-3-(4-methyl-piperazin-1-yl)-3-oxo-propyl]amide]: the Hygroscopicity entry in data set [1] is “Highly”. Also, in data set [1], the “Water uptake 80% RH 25° C.” value is 31.5%. Also, in data set [1], the “Behavior under saturated humidity 80° C.” value was “Deliquescence”. Moreover, the “Stress degradation conditions 80°/saturated humidity” value in data set [2] is listed as “huge degradation”. For the same compound, the “Stress degradation conditions 80° C./dry” value in data set [2] was “stable*”. For the same compound, the Solubility is more than 10000 µg/mL in data set [3] (0.1N HCl, simulated gastric fluid, 0.1N HCl, read-out: Solubility); more than 10000 µg/mL in data set [3] (hydrogenocarbonate buffer, pH 9, aqueous buffer, 0.2M pH = 9 hydregenocarbonate buffer, read-out: Solubility); 8900 µg/mL in data set [3] (phosphate buffer, pH 4, aqueous buffer, 0.1M pH = 4 phosphate buffer, read-out: Solubility); 6500 µg/mL in data set [3] (phosphate buffer, pH 6.5, aqueous buffer, 0.1M pH = 6.5 phosphate buffer, read-out: Solubility); 6900 µg/mL in data set [3] (phosphate buffer, pH 7.4, aqueous buffer, 0.1M pH = 7.4 phosphate buffer, read-out: Solubility); more than 10000 µg/mL in data set [3] (purified water, water, Purified water, read-out: Solubility). Also, the “% of impurity (main N-oxide impurity)” value in data set [4] (after 6 hours) was 25.4% after 6 hours.
